The values that follow come from patent US12114657B1, “Compositions for use in animal housing” (priority 2017, dated 2024).

For the experiment the following is noted: in vivo.

As for `OO` [hydrogen peroxide], the “antibiotics use as fraction of the normal dose” value is “⅛” and the effect on mortality result is “reduced mortality”.
